Patent US20220177508A1, “C10-Cyclic Substituted 13-Membered Macrolides and Uses Thereof” (Zikani Therapeutics, Inc., priority 2018, published 2022)
In brackets after ≈: the same amount, converted by molar mass.

Columns and labels:
Assay type in all cases: cell-based
S. aureus MP-12 = test: Broth dilution MIC determination (CLSI), S. aureus MP-12; conditions: Staphylococcus aureus, MP12; strain MP-12, broth dilution
E. coli MP-4 = test: Broth dilution MIC determination (CLSI), E. coli MP-4; conditions: Escherichia coli, MP4; strain MP-4, broth dilution; read-out: MIC E. coli MP-4
K. pneumoniae MP-546 = test: Broth dilution MIC determination (CLSI), K. pneumoniae MP-546; conditions: Klebsiella pneumoniae, MP546; strain MP-546, broth dilution
P. aeruginosa MP-3 = test: Broth dilution MIC determination (CLSI), P. aeruginosa MP-3; conditions: Pseudomonas aeruginosa, MP3; strain MP-3, broth dilution
A. baumannii MP-15 = test: Broth dilution MIC determination (CLSI), A. baumannii MP-15; conditions: Acinetobacter baumannii, MP15; strain MP-15, broth dilution; read-out: MIC A. baumanii MP-15

Row | SMILES | MIC (S. aureus MP-12) | MIC (E. coli MP-4) | MIC (K. pneumoniae MP-546) | MIC (P. aeruginosa MP-3) | MIC (A. baumannii MP-15)
1 | CO[C@]1(C)C[C@@H](C)CN(C)[C@H]([C@@H]2CCCN(C)C2)COC(=O)C(C)(C)C(=O)[C@H](C)[C@H]1O[C@@H]1O[C@H](C)C[C@H](N(C)C)[C@H]1O [Compound 113, (3R,6R,8R,9R,10R)-9-(((2S,3R,4S,6R)-4-(dimethylamino)-3-hydroxy-6-methyltetrahydro-2H-pyran-2-yl)oxy)-8-methoxy-4,6,8,10,12,12-hexamethyl-3-((R)-1-methylpiperidin-3-yl)-1-oxa-4-azacyclotridecane-11,13-dione] | > 32 mg/L | 4 to 32 mg/L (≈ 6.69 to 53.5 µM) | > 32 mg/L | > 32 mg/L | > 32 mg/L
2 | CO[C@]1(C)C[C@@H](C)CN(C)[C@@H]([C@@H]2CCCNC2)COC(=O)C(C)(C)C(=O)[C@H](C)[C@H]1O[C@@H]1O[C@H](C)C[C@H](N(C)C)[C@H]1O [Compound 53] | 4 to 32 mg/L (≈ 6.85 to 54.8 µM) | < 4 mg/L | < 4 mg/L | > 32 mg/L | > 32 mg/L
3 | CO[C@]1(C)C[C@@H](C)CN(C)[C@H](c2ccc(-c3cccc(N)c3)cc2)COC(=O)C(C)(C)C(=O)[C@H](C)[C@H]1O[C@@H]1O[C@H](C)C[C@H](N(C)C)[C@H]1O [Compound 93, (3R,6R,8R,9R,10R)-3-(3′-Amino-[1,1′-biphenyl]-4-yl)-9-(((2S,3R,4S,6R)-4-(dimethylamino)-3-hydroxy-6-methyltetrahydro-2H-pyran-2-yl)oxy)-8-methoxy-4,6,8,10,12,12-hexamethyl-1-oxa-4-azacyclotridecane-11,13-dione] | 4 to 32 mg/L (≈ 5.99 to 47.9 µM) | 4 to 32 mg/L (≈ 5.99 to 47.9 µM) | > 32 mg/L | > 32 mg/L | > 32 mg/L
4 | CO[C@]1(C)C[C@@H](C)CN(C)[C@@H]([C@@H]2CCN(CC(C)C)C2)COC(=O)C(C)(C)C(=O)[C@H](C)[C@H]1O[C@@H]1O[C@H](C)C[C@H](N(C)C)[C@H]1O [Compound 110, (3S,6R,8R,9R,10R)-9-(((2S,3R,4S,6R)-4-(dimethylamino)-3-hydroxy-6-methyltetrahydro-2H-pyran-2-yl)oxy)-3-((R)-1-isobutylpyrrolidin-3-yl)-8-methoxy-4,6,8,10,12,12-hexamethyl-1-oxa-4-azacyclotridecane-11,13-dione] | 4 to 32 mg/L (≈ 6.39 to 51.1 µM) | < 4 mg/L | < 4 mg/L | > 32 mg/L | > 32 mg/L
5 | CO[C@]1(C)C[C@@H](C)CN(C)[C@H]([C@H]2CCN(C(C)C)C2)COC(=O)C(C)(C)C(=O)[C@H](C)[C@H]1O[C@@H]1O[C@H](C)C[C@H](N(C)C)[C@H]1O [Compound 11, (3R,6R,8R,9R,10R)-9-(((2S,3R,4S,6R)-4-(Dimethylamino)-3-hydroxy-6-methyltetrahydro-2H-pyran-2-yl)oxy)-3-((S)-1-isopropylpyrrolidin-3-yl)-8-methoxy-4,6,8,10,12,12-hexamethyl-1-oxa-4-azacyclotridecane-11,13-dione] | 4 to 32 mg/L (≈ 6.54 to 52.3 µM) | < 4 mg/L | < 4 mg/L | > 32 mg/L | > 32 mg/L
6 | CO[C@]1(C)C[C@@H](C)CN(C)[C@H]([C@H]2CCCN(C(C)C)C2)COC(=O)C(C)(C)C(=O)[C@H](C)[C@H]1O[C@@H]1O[C@H](C)C[C@H](N(C)C)[C@H]1O [Compound 104, (3R,6R,8R,9R,10R)-9-(((2S,3R,4S,6R)-4-(dimethylamino)-3-hydroxy-6-methyltetrahydro-2H-pyran-2-yl)oxy)-3-((S)-1-isopropylpiperidin-3-yl)-8-methoxy-4,6,8,10,12,12-hexamethyl-1-oxa-4-azacyclotridecane-11,13-dione] | 4 to 32 mg/L (≈ 6.39 to 51.1 µM) | < 4 mg/L | 4 to 32 mg/L (≈ 6.39 to 51.1 µM) | > 32 mg/L | > 32 mg/L
7 | CO[C@]1(C)C[C@@H](C)CN(C)[C@H](C2CN(CC(C)C)C2)COC(=O)C(C)(C)C(=O)[C@H](C)[C@H]1O[C@@H]1O[C@H](C)C[C@H](N(C)C)[C@H]1O [Compound 112] | 4 to 32 mg/L (≈ 6.54 to 52.3 µM) | < 4 mg/L | < 4 mg/L | > 32 mg/L | 4 to 32 mg/L (≈ 6.54 to 52.3 µM)
8 | CO[C@]1(C)C[C@@H](C)CN(C)[C@H](C2CCNCC2)COC(=O)C(C)(C)C(=O)[C@H](C)[C@H]1O[C@@H]1O[C@H](C)C[C@H](N(C)C)[C@H]1O [Compound 80, (3R,6R,8R,9R,10R)-9-(((2S,3R,4S,6R)-4-(dimethylamino)-3-hydroxy-6-methyltetrahydro-2H-pyran-2-yl)oxy)-8-methoxy-4,6,8,10,12,12-hexamethyl-3-(piperidin-4-yl)-1-oxa-4-azacyclotridecane-11,13-dione] | 4 to 32 mg/L (≈ 6.85 to 54.8 µM) | < 4 mg/L | 4 to 32 mg/L (≈ 6.85 to 54.8 µM) | > 32 mg/L | > 32 mg/L
9 | CO[C@]1(C)C[C@@H](C)CN(C)[C@H](c2ccncc2)COC(=O)C(C)(C)C(=O)[C@H](C)[C@H]1O[C@@H]1O[C@H](C)C[C@H](N(C)C)[C@H]1O [Compound 19, (3R,6R,8R,9R,10R)-9-(((2S,3R,4S,6R)-4-(dimethylamino)-3-hydroxy-6-methyltetrahydro-2H-pyran-2-yl)oxy)-8-methoxy-4,6,8,10,12,12-hexamethyl-3-(pyridin-4-yl)-1-oxa-4-azacyclotridecane-11,13-dione] | > 32 mg/L | > 32 mg/L | > 32 mg/L | > 32 mg/L | > 32 mg/L

Next, values leading:

Row | MIC (S. aureus MP-12) | MIC (E. coli MP-4) | MIC (K. pneumoniae MP-546) | MIC (P. aeruginosa MP-3) | MIC (A. baumannii MP-15) | SMILES
10 | 4 to 32 mg/L (≈ 5.41 to 43.3 µM) | < 4 mg/L | 4 to 32 mg/L (≈ 5.41 to 43.3 µM) | > 32 mg/L | > 32 mg/L | CO[C@]1(C)C[C@@H](C)CN(C)[C@H](C2CN(C(=O)CC(C)(C)CN(C)CC(C)C)C2)COC(=O)C(C)(C)C(=O)[C@H](C)[C@H]1O[C@@H]1O[C@H](C)C[C@H](N(C)C)[C@H]1O [Compound 167, (3R,6R,8R,9R,10R)-9-(((2S,3R,4S,6R)-4-(dimethylamino)-3-hydroxy-6-methyltetrahydro-2H-pyran-2-yl)oxy)-3-(1-(4-(isobutyl(methyl)amino)-3,3-dimethylbutanoyl)azetidin-3-yl)-8-methoxy-4,6,8,10,12,12-hexamethyl-1-oxa-4-azacyclotridecane-11,13-dione]
11 | 4 to 32 mg/L (≈ 6.25 to 50 µM) | < 4 mg/L | < 4 mg/L | > 32 mg/L | > 32 mg/L | CO[C@]1(C)C[C@@H](C)CN(C)[C@H](C2CCN(CC(C)C)CC2)COC(=O)C(C)(C)C(=O)[C@H](C)[C@H]1O[C@@H]1O[C@H](C)C[C@H](N(C)C)[C@H]1O [Compound 121, (3R,6R,8R,9R,10R)-9-(((2S,3R,4S,6R)-4-(dimethylamino)-3-hydroxy-6-methyltetrahydro-2H-pyran-2-yl)oxy)-3-(1-isobutylpiperidin-4-yl)-8-methoxy-4,6,8,10,12,12-hexamethyl-1-oxa-4-azacyclotridecane-11,13-dione]
12 | 4 to 32 mg/L (≈ 6.39 to 51.1 µM) | < 4 mg/L | < 4 mg/L | > 32 mg/L | > 32 mg/L | CO[C@]1(C)C[C@@H](C)CN(C)[C@@H](C2CCN(C(C)C)CC2)COC(=O)C(C)(C)C(=O)[C@H](C)[C@H]1O[C@@H]1O[C@H](C)C[C@H](N(C)C)[C@H]1O [Compound 116, (3S,6R,8R,9R,10R)-9-(((2S,3R,4S,6R)-4-(dimethylamino)-3-hydroxy-6-methyltetrahydro-2H-pyran-2-yl)oxy)-3-(1-isopropylpiperidin-4-yl)-8-methoxy-4,6,8,10,12,12-hexamethyl-1-oxa-4-azacyclotridecane-11,13-dione]
13 | > 32 mg/L | 4 to 32 mg/L (≈ 6.39 to 51.1 µM) | 4 to 32 mg/L (≈ 6.39 to 51.1 µM) | > 32 mg/L | > 32 mg/L | CO[C@]1(C)C[C@@H](C)CN(C)[C@@H]([C@H]2CC[C@H](N(C)C)CC2)COC(=O)C(C)(C)C(=O)[C@H](C)[C@H]1O[C@@H]1O[C@H](C)C[C@H](N(C)C)[C@H]1O [Compound 137, (3S,6R,8R,9R,10R)-9-(((2S,3R,4S,6R)-4-(dimethylamino)-3-hydroxy-6-methyltetrahydro-2H-pyran-2-yl)oxy)-3-((1r,4S)-4-(dimethylamino)cyclohexyl)-8-methoxy-4,6,8,10,12,12-hexamethyl-1-oxa-4-azacyclotridecane-11,13-dione]
14 | > 32 mg/L | 4 to 32 mg/L (≈ 6.54 to 52.3 µM) | > 32 mg/L | > 32 mg/L | > 32 mg/L | CO[C@]1(C)C[C@@H](C)CN(C)[C@H](C2CCN(C)CC2)[C@H](C)OC(=O)C(C)(C)C(=O)[C@H](C)[C@H]1O[C@@H]1O[C@H](C)C[C@H](N(C)C)[C@H]1O [Compound 130, (2S,3R,6R,8R,9R,10R)-9-(((2S,3R,4S,6R)-4-(dimethylamino)-3-hydroxy-6-methyltetrahydro-2H-pyran-2-yl)oxy)-8-methoxy-2,4,6,8,10,12,12-heptamethyl-3-(1-methylpiperidin-4-yl)-1-oxa-4-azacyclotridecane-11,13-dione]
15 | 4 to 32 mg/L (≈ 6.54 to 52.3 µM) | < 4 mg/L | < 4 mg/L | > 32 mg/L | > 32 mg/L | CCN1CCC([C@H]2COC(=O)C(C)(C)C(=O)[C@H](C)[C@@H](O[C@@H]3O[C@H](C)C[C@H](N(C)C)[C@H]3O)[C@](C)(OC)C[C@@H](C)CN2C)CC1 [Compound 175, (3S,6R,8R,9R,10R)-9-(((2S,3R,4S,6R)-4-(dimethylamino)-3-hydroxy-6-methyltetrahydro-2H-pyran-2-yl)oxy)-3-(1-ethylpiperidin-4-yl)-8-methoxy-4,6,8,10,12,12-hexamethyl-1-oxa-4-azacyclotridecane-11,13-dione]
16 | > 32 mg/L | 4 to 32 mg/L (≈ 6.25 to 50 µM) | 4 to 32 mg/L (≈ 6.25 to 50 µM) | > 32 mg/L | > 32 mg/L | CCN(C)[C@H]1CC[C@H]([C@H]2COC(=O)C(C)(C)C(=O)[C@H](C)[C@@H](O[C@@H]3O[C@H](C)C[C@H](N(C)C)[C@H]3O)[C@](C)(OC)C[C@@H](C)CN2C)CC1 [Compound 157, (3S,6R,8R,9R,10R)-9-(((2S,3R,4S,6R)-4-(dimethylamino)-3-hydroxy-6-methyltetrahydro-2H-pyran-2-yl)oxy)-3-((1r,4S)-4-(ethyl(methyl)amino)cyclohexyl)-8-methoxy-4,6,8,10,12,12-hexamethyl-1-oxa-4-azacyclotridecane-11,13-dione]
